US20230090708A1, “METHODS AND COMPOSITIONS FOR THE TREATMENT OF HEMANGIOMA” (MASSEY VENTURES LIMITED, priority 2020, published 2023)
≈ marks a conversion by molar mass, not a printed value. Where two headings read alike, the source gives them in different places.

How the values were obtained:
[1] = cited from earlier work
[2] = cited from earlier work; remark: listed apart in the source
rabbit lung ACE = biological target: T1, rabbit lung ACE (Oryctolagus cuniculus, UniProt P12822); details: vs rabbit lung ACE, cited from earlier work
T1 construct: rabbit lung ACE; from tissue; host or cells: rabbit lung
T1 sequence (P12822 34-1310): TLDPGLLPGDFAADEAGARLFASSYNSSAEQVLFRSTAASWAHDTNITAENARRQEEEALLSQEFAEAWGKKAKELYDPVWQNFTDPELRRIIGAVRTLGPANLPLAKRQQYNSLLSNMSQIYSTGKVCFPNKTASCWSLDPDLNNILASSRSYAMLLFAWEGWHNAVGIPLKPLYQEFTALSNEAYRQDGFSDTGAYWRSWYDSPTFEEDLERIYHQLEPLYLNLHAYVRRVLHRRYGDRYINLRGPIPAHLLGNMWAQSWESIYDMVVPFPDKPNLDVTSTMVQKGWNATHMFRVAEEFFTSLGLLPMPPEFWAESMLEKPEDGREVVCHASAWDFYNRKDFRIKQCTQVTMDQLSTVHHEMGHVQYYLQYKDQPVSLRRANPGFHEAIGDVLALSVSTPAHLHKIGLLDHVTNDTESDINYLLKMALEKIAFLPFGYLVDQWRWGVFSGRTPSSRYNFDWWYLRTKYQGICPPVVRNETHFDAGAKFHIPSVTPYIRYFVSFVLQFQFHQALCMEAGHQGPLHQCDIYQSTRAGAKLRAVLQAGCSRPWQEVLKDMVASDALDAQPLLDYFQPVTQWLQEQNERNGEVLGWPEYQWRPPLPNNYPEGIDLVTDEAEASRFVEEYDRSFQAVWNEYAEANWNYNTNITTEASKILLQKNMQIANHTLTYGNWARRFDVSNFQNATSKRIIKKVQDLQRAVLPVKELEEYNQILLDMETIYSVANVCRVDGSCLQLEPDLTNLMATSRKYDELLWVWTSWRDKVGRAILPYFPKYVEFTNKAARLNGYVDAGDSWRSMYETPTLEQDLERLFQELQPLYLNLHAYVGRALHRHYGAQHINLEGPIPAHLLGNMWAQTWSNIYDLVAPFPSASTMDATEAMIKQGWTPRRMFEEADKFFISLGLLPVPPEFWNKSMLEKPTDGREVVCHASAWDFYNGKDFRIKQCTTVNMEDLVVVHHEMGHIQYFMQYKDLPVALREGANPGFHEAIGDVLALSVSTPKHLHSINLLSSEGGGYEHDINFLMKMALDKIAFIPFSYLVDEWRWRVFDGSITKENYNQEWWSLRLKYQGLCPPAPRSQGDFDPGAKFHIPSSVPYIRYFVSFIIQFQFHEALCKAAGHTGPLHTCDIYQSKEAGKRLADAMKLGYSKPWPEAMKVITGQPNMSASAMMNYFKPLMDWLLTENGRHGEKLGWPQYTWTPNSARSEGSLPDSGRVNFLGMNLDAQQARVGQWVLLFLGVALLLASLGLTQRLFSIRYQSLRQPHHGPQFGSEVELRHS

[3] = cited from earlier work; for Half life: short or long acting: in words; for Half life: in vivo
superficial IH = details: cited from earlier work
[4] = cited from earlier work; remark: listed apart in the source
[5] = Franz-diffusion cell permeation through skin-model membranes; details: 120 hours
Description: Firstly, a custom-built Franz-diffusion cell (FIG. 34 A) was constructed in-house, consisting of a donor and receiver chamber, and fitted with a water-jacket to enable the temperature to be controlled to mimic physiological conditions. […] This model system was used as a screening tool to increase the success of subsequent permeation studies performed on excised animal skin.
The system was validated by investigating the permeation of a water-soluble fluorescent dye, carboxyfluorescein, which has poor skin penetration properties. […] As a comparison, carboxyfluorescein was encapsulated into deformable liposomes with a phospholipid membrane composition of soy phosphatidylcholine (Phospholipon® 90G) and polysorbate 80 in an 80:20 mol % ratio. […]
The carboxyfluorescein emulgel (2 mL) was placed in the receiver chamber of the Franz-diffusion cell fitted with a Strat-M® membrane, and permeation of fluorescein across the membrane was monitored over time and quantified by fluoresce spectroscopy. […]
The permeation of propranolol through skin-model membranes in vitro was assessed. A 2-mL volume of the appropriate vehicle (cream vs. emulsion gel) was placed in the donor chamber of the Franz-diffusion cell, and the concentration of propranolol in the receiver chamber was determined by UV-Vis spectroscopy at frequent time intervals over 60 hours.

[6] = tested on: proliferating hemangioma cells; assay: Experiment 7: different ACEi and beta blockers on one primary cell line, MTT; format: cell-based, human; details: for inhibition of proliferating hemangioma cells: 1 μM and 10 μM; for Results Summary: 72 hours, one cell line
Protocol: (§1) An in vitro cell culture model of infantile hemangioma was developed to assess the impact of renin-angiotensin system inhibitors on cellular proliferation. A primary cell line of proliferating infantile hemangioma cells, including haemangioma stem cells, was derived from a tissue biopsy obtained from patients during the proliferating phase of the disease. The primary cell lines are cultured in 25 cm^2 flasks using standard culture media and conditions. The cultured cells are used to seed 96-well plates with a seed cell concentration of 2500 or 5000 cells per well, with additional culture media (200 μL). All studies are performed in triplicate.
The plates are incubated overnight to allow cell adherence to the wells. The wells are photographed to confirm cell adherence and confluency. The appropriate drug(s) to be examined are subsequently added to the wells. […] The media is aspirated from each well and stored frozen for possible future analyses. Media is added to the wells and an MTT determination is undertaken according to standard protocols.
(§2) From the triplicate incubations of each drug concentration at each time, as well as for all controls, the mean±standard deviation is calculated. The net survival (optical density value) is calculated by subtracting the appropriate blank mean value from each cell culture. From the MTT data, the percentage of survival of cells in the presence of each concentration of drug after each time of culturing is determined.
Briefly, cells were seeded in 96-well plates at concentrations of 2500 cells/well in triplicate for each drug and drug combination. […] All plates were performed in triplicate. Beta blockers used in the study were (±)-propranolol, R-propranolol, S-propranolol, timolol, and betaxalol.

[7] = tested on: flat or minimally raised IH lesions; details: cited from earlier work
brush border ACE = biological target: T2, brush border ACE (Homo sapiens, UniProt P12821); details: cited from earlier work
T2 construct: brush border ACE; from tissue
T2 sequence (P12821 30-1306): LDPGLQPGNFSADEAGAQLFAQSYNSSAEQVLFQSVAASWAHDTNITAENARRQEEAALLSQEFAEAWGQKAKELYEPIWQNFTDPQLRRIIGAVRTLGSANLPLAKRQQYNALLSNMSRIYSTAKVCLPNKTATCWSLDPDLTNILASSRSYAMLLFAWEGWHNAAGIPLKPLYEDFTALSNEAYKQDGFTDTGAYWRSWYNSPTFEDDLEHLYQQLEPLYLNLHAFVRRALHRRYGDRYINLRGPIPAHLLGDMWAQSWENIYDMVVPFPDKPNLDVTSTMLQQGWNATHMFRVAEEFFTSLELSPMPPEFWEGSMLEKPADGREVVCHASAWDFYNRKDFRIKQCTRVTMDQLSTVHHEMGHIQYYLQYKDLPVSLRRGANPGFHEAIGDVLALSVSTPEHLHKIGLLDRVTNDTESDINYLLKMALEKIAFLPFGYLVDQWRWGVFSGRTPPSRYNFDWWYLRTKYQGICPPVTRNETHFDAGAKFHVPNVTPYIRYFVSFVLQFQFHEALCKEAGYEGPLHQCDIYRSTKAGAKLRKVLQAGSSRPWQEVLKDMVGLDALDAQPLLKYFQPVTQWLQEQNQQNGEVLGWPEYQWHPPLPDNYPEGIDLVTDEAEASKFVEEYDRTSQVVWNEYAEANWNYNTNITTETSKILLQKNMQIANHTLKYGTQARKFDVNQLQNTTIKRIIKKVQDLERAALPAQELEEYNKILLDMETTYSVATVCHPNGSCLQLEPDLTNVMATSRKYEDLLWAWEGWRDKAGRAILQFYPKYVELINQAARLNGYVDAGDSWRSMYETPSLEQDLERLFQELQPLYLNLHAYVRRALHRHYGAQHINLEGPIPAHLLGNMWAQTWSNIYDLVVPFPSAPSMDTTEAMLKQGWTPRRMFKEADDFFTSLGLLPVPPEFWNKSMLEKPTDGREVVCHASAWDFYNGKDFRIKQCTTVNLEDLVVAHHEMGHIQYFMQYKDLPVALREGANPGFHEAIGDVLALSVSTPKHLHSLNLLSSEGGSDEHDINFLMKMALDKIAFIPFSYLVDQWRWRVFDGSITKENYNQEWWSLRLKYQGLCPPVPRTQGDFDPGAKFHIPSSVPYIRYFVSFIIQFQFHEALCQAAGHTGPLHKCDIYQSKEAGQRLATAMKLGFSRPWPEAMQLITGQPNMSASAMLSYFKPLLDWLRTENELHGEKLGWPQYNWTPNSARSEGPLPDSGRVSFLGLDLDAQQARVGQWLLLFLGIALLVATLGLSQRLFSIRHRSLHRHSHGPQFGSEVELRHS

[8] = tested on: proliferating hemangioma cells; assay: Example 5: R- and S-beta blockers alone and with cilazapril, MTT; format: cell-based, human; details: for individual isomers compared with the racemic mixture: alone; for attenuating hemangioma cell proliferation, propranolol vs timolol enantiomers: particularly at 1-5 μM
Protocol: An in vitro cell culture model of infantile hemangioma was developed to assess the impact of renin-angiotensin system inhibitors on cellular proliferation. A primary cell line of proliferating infantile hemangioma cells, including haemangioma stem cells, was derived from a tissue biopsy obtained from patients during the proliferating phase of the disease. The primary cell lines are cultured in 25 cm^2 flasks using standard culture media and conditions. The cultured cells are used to seed 96-well plates with a seed cell concentration of 2500 or 5000 cells per well, with additional culture media (200 μL). All studies are performed in triplicate. The plates are incubated overnight to allow cell adherence to the wells. The wells are photographed to confirm cell adherence and confluency. The appropriate drug(s) to be examined are subsequently added to the wells. After 24 hours, one set of plates (experimental and blank) is stopped. The media is aspirated from each well and stored frozen for possible future analyses. Media is added to the wells and an MTT determination is undertaken according to standard protocols. This is repeated at 48 and 72 hours. From the triplicate incubations of each drug concentration at each time, as well as for all controls, the mean±standard deviation is calculated. The net survival (optical density value) is calculated by subtracting the appropriate blank mean value from each cell culture. From the MTT data, the percentage of survival of cells in the presence of each concentration of drug after each time of culturing is determined. The experimental protocol was performed as per Example 1. Briefly, cells were seeded in 96-well plates at concentrations of 2500 cells/well in triplicate for each drug and drug combination. Drug(s) were added to each well 24 hours after seeding and re-dosed every 24 hours. Cell viability was assessed by MTT assay after 24, 48, and 72 hours. All plates were performed in triplicate. […] Timolol and propranolol were used as model beta blockers and cilazapril as a model ACE inhibitor.

[9] = tested on: proliferating hemangioma cell lines (n=9); assay: Example 6: single agents and combinations on nine primary cell lines, MTT, CompuSyn combination index; format: cell-based, human; details: 1 to 10 μM; 72 hours; n=9
Protocol: as §1
The plates are incubated overnight to allow cell adherence to the wells. The wells are photographed to confirm cell adherence and confluency. The appropriate drug(s) to be examined are subsequently added to the wells. After 24 hours, one set of plates (experimental and blank) is stopped. The media is aspirated from each well and stored frozen for possible future analyses. Media is added to the wells and an MTT determination is undertaken according to standard protocols. This is repeated at 48 and 72 hours.
as §2
A study was undertaken using combinations of ACE inhibitors, beta blockers and angiotensin II type 2 receptor blockers to inhibit proliferating hemangioma cells. […] Patient histories pertaining to each cell line is described in Table 5.
The experimental protocol was performed as per Example 1. Briefly, cells were seeded in 96-well plates at concentrations of 2500 cells/well in triplicate for each drug and drug combination. Drug(s) were added to each well 24 hours after seeding and re-dosed every 24 hours. Cell viability was assessed by MTT assay after 24, 48, and 72 hours. All plates were performed in triplicate. Drugs were assessed alone and in combination, as described in Table 6. Propranolol was used as a model beta blocker, cilazapril as a model ACE inhibitor, and SMM02 (L-159686) as a model AT2Ri. Synergy was measured using the CompuSyn open-source software protocol for quantifying synergism and antagonism that uses the median-effect equation and mass-action laws to generate a combination index (www.compusyn.com). Synergism, additive effects and antagonism are defined as a CI<1, CI=1, and CI>1, respectively.

CCOC(=O)[C@H](CCc1ccccc1)N[C@H]1CCc2ccccc2N(CC(=O)O)C1=O [Benazepril]
Solubility ([1]; pH 7): 1.76 mg/L (pH 7)
pKa [2]: 3.5
pKa ([2]; second value): 5.4
IC50 (rabbit lung ACE): 425 nM
Half life: short or long acting [3]: Long acting

O=C(O)[C@H](CCc1ccccc1)N[C@H]1CCCN2CCC[C@@H](C(=O)O)N2C1=O [cilazaprilat]
IC50 (rabbit lung ACE): 1.93 nM
Half life [3]: 9 h (cilazaprilat)

CC(C)Cn1cnc2c(N)nc3ccccc3c21 [imiquimod, Imiquimod]
time within which all cases are improved (superficial IH; 5% cream): ≤ 4 months
side effects (superficial IH; topical): severe local inflammatory reactions leading to disfiguring scars

carboxyfluorescein
log P [4]: 2.9
permeation of carboxyfluorescein through the skin-model membrane [5]: No permeation

Lisinopril
Solubility [1]: 97 mg/mL
Log P ([4]; Table 1): −1.01
log P [4]: −1.01
pKa [2]: 3.2
pKa ([2]; second value): 10.2
IC50 (rabbit lung ACE; unit inferred): 3.3 nM
Half life [3]: 12.6 h
Half life: short or long acting [3]: Long acting
Estimated Optimal Dosage Range [6]: 1 to 10 µM
Inhibition vs. Cells + Adjuvant at 72 Hours ([6]; 1 μM): 1 μM - <0%
inhibition of proliferating hemangioma cells [6]: no effect
Inhibition vs. Cells + Adjuvant at 72 Hours ([6]; 10 μM): 10 μM -1.67%
Results Summary [6]: Non-

CCC(=O)O[C@]1(C(=O)CCl)[C@@H](C)C[C@H]2[C@@H]3CCC4=CC(=O)C=C[C@]4(C)[C@@]3(F)[C@@H](O)C[C@@]21C [clobetasol propionate]
good response ([7]; topical 0.05%, 4 to 21 weeks): 35%
no response ([7]; topical 0.05%, 4 to 21 weeks): 27%
partial response ([7]; topical 0.05%, 4 to 21 weeks): 38%
adverse effects ([7]; topical ultrapotent corticosteroid): localised atrophy, hypopigmentation, hypertrichosis and infection

CCOC(=O)[C@H](CCc1ccccc1)N[C@@H](C)C(=O)N1[C@H](C(=O)O)C[C@@H]2CCC[C@@H]21 [Ramipril]
Solubility [1]: 0.0035 mg/mL (≈ 8.4 µM)
pKa [2]: 3.75
pKa ([2]; second value): 5.2
Half life [3]: 2 to 4 h (Ramipril)
Half life: short or long acting [3]: Long acting
Complete ACE inhibition lasting (brush border ACE; after single 10 μM dose): inhibition lasting 15 days
IC50 (brush border ACE; vs brush border ACE): 5 nM
inhibition of proliferating hemangioma cells [6]: good and similar level of inhibition
Results Summary [6]: Responder
inhibition at 1 µM ([6]; Homo sapiens, 72 h, 1 μM, read-out: Inhibition vs. Cells + Adjuvant at 72 Hours): < 0%
inhibition at 10 µM ([6]; Homo sapiens, 72 h, 10 μM, read-out: Inhibition vs. Cells + Adjuvant at 72 Hours): 68.1%

CC(C)NC[C@@H](O)COc1cccc2ccccc12 [R(+) Propranolol, R-propranolol]
individual isomers compared with the racemic mixture [8]: as effective alone as the racemic mixture
attenuating hemangioma cell proliferation, propranolol vs timolol enantiomers [8]: superior to R- and S-timolol
dose-response across all cell lines [9]: typical dose-response
Estimated Optimal Dosage Range [6]: 1 to 10 µM
Inhibition vs. Cells + Adjuvant at 72 Hours ([6]; 1 μM): 1 μM - No - 1.59%
Inhibition vs. Cells + Adjuvant at 72 Hours ([6]; 10 μM): 10 μM - Response - 50.35%
Results Summary [6]: Responder

CC(C)NCC(O)COc1cccc2ccccc12 (stereo not drawn) [S(−) Propranolol, S-propranolol]
individual isomers compared with the racemic mixture [8]: as effective alone as the racemic mixture
attenuating hemangioma cell proliferation, propranolol vs timolol enantiomers [8]: superior to R- and S-timolol
dose-response across all cell lines [9]: typical dose-response
Estimated Optimal Dosage Range [6]: 1 to 10 µM
Inhibition vs. Cells + Adjuvant at 72 Hours ([6]; 1 μM): 1 μM - No - 2.07%
Inhibition vs. Cells + Adjuvant at 72 Hours ([6]; 10 μM): 10 μM - Response - 45.68%
Results Summary [6]: Responder
